The test system of assay [1] is IL-1 production in human monocytes and macrophages. Put plainly: Inhibition of IL-1 production in human monocytes and macrophages (silica-stimulated, thymocyte 3H-thymidine assay). Format: cell-based. As to conditions: 0.1 to 100 μg/ml; 100 μg/ml silica, 48 hours; FIG. 2. On the procedure: Normal human peripheral blood was heparin-treated and diluted with equal amount of Hank's balanced salt solution (HBSS: Ca^2+ and Mg^2+ free). The diluted blood was put into a centrifuge tube containing therein Ficoll-Hypaque(Sigma, St. Louis, Mo., U.S.A.) layer having a density of 1.077 piled up on Ficoll-Hypaque layer having a density of 1.119, and then centrifuged at 700×g for 30 minutes to obtain monocytes from the layer between Ficoll-Hypaque layer having a density of 1.077 and serum layer, and neutrophils from the layer between Ficoll-Hypaque layer having a density of 1.077 and that having a density of 1.119. The separated cells were washed twice with 4° C. HBSS(Ca^2+ and Mg^2+ free) and suspended in RPMI 1640 medium(Gibco, Grand Island, N.Y., U.S.A.) containing 10% fetal bovine serum(FBS, Hyclone, Logan, Utah, U.S.A.). The suspensions were added to the wells of 24-well incubation plate(Costar, Cambridge, Mass., U.S.A.) and incubated at 37° C. for 2 hours to obtain monocytes, macrophages and neutrophils. […] The activity of IL-1 in the dialyzate was determined in accordance with the method of Gery described in Cellular Immunology, 64, 293-303(1981) as follows. […] When the incubation was completed, the cells were collected on the glass fiber filter and the amount of incorporated ^3 H-thymidine was determined by liquid scintillation counter(Beckman).

The subject of assay [2] is experimental silicosis in rat. As to the kind of experiment: Experimental silicosis in rat, lung histology. Type of assay: in vivo, Sprague-Dawley rat. As to conditions: silica 50 mg intrabronchial, 10 mg orally twice a week, 12 to 18 weeks, FIG. 9. On the procedure:
For the purpose of confirming the in vivo anti-fibrogenic activity of acanthoic acid, an experimental silicosis model was established and the effect of acanthoic acid on the silicosis model when administered thereto was determined.
Silica was refined by removing any contaminant, e.g., Fe2 O3, therefrom in accordance with the method of Lugano as described in Am. J. Pathol., 109, 27-36(1982) as follows. Silica powder(Sigma, St. Louis, Mo.; the content of the particles having a diameter of 5 μm is at least 80%) was suspended in 1N HCl and the suspension was heated and washed with distilled water. The resultant was sterilized by dry heating at 200° C. for 2 hours and then used in the following experiment.
A 7 to 8 week-old male Sprague-Dawley rat and a 5-week old female ICR mouse were anesthetized by an intraperitoneal injection of 2 to 5 mg of ketamine chloride. The rat was injected into their bronchia with 50 mg of silica dissolved in 0.5 ml of sterilized PBS and the mouse was injected with 2 mg of silica dissolved in 0.1 ml of sterilized PBS, by using an 1 ml syringe. From the next day after the injection of silica, 10 mg of acanthoic acid was administered orally to the rat and mouse twice a week for a period ranging from 12 to 18 weeks. […]

Assay [3] relates to serum glutamic-pyruvic transaminase (sGPT). As to the kind of experiment: CCl4-induced hepatocirrhosis in rat, serum GPT. Format: in vivo, Sprague-Dawley rat. As to conditions: CCl4-treated rat; 0.2 ml orally twice a week, 13 weeks; FIG. 10. From the text: (§1) Hepatocirrhosis(hepatic sclerosis) is characterized by the fibrosis of whole liver, complete disruption of liver parenchyma by fibrous septa, and formation of regenerative nodules. It is derived mostly from a chronic hepatitis or chronic alcoholism, however, the precise causes thereof are unknown. In a hepatocirrhosis patient, the amount of cytokines, e.g., TNF-α, which is involved in inflammation and fibrosis, is in an increased state; and, therefore, the inhibition of hepatocirrhosis by acanthoic acid may be determined by the inhibitory activity to TNF-α. To induce the experimental hepatocirrhosis in accordance with the method of Nakataukasa, H., et al. as described in J. Clin. Invest., 85, 1833-1843(1990), 1.0 ml/100 g of body weight of CCl4 solution(50% CCl4 +50% corn oil) was injected intraperitoneally to 4 week old male Sprague-Dawley rats twice a week, and 0.2 ml each of methanol extract of A. koreanum Nakai and acanthoic acid was administered orally at the time of the injection of CCl4 twice a week. After 13 weeks from the start of the test, each of the rats was anesthetized with ether and the blood samples were obtained from the heart to determine serum glutamic-oxaloacetic transaminase(sGOT) value and serum glutamic-pyruvic transaminase(sGPT) value(FIG. 10).

The next assay relates to rat hepatocirrhosis. As to the kind of experiment: CCl4-induced hepatocirrhosis in rat, liver histology. Format: in vivo, Sprague-Dawley rat. As to conditions: 0.2 ml orally twice a week, 13 weeks, FIG. 11, E = CCl4 + methanol extract, F = CCl4 + acanthoic acid.
Text: as §1, with “10). […]” for “10).”

Turning to `C=C[C@@]1(C)CC=C2C(CCC3[C@](C)(C(=O)O)CCC[C@@]23C)C1` (single isomer, unassigned; (-)) [acanthoic acid, (-)-pimara-9(11),15-diene-19-oic acid], the “inhibition of production of IL-1” value in assay [1] is “inhibited by acanthoic acid in a concentration-dependent mode”. Besides, in assay [2], the “lung histology, granuloma and fibrosis (experimental silicosis)” value was “only small-sized granulomas which is not coalesce with each other and a slight fibrosis are observed”. For the same molecule, the “decrease of sGPT value” in assay [3] is given as “more than 40%”. In the assay on rat hepatocirrhosis, the “liver histology, effect on hepatocirrhosis” value is listed as “the inhibitory effect on the hepatocirrhosis is lower than that of E”.

Source of the values: US5900434A, “Method for inhibiting the production of interleukin-1 or tumor necrosis factor-α by administering acanthoic acid” (Korea Institute of Science and Technology, priority 1994, dated 1999).
